We go through seven compounds from BindingDB's records for doi:10.1016/j.bmcl.2006.06.087 (Fundp, 2006).

In this assay the target is T1, Fatty-acid amide hydrolase 1 [30-579] (Rattus norvegicus, UniProt P97612).
T1 construct: 30-579
T1 sequence (P97612 whole entry): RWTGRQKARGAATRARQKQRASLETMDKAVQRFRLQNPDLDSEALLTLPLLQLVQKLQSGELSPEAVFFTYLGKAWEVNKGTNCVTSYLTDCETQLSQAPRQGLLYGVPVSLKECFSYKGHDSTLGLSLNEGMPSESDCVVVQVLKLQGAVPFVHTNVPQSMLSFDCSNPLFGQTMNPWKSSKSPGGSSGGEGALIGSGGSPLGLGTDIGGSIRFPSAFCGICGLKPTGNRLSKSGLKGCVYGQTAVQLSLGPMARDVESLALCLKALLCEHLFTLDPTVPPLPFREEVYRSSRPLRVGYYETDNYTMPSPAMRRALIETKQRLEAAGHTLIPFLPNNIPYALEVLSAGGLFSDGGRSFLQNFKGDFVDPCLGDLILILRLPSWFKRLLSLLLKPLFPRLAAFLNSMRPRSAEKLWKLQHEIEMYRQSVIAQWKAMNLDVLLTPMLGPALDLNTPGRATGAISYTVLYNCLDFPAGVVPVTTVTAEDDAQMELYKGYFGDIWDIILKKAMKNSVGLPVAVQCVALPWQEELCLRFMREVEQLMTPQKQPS
In words: FAAH Inhibition Assay. Conditions: pH 9; 37 °C. On the procedure:
The effect of the test compounds on the enzymatic hydrolysis of [3H]anandamide was evaluated by using rat brain homogenate preparations. [3H]Ethanolamine produced from [3H]AEA hydrolysis was used to calculate FAAH activity and was measured by scintillation counting of the aqueous phase after extraction of the incubation mixture. Data are expressed as the concentration exerting a half maximal inhibition (IC50).

SMILES strings stand for the structures.

Compound `O=C1N(c2ccccc2)C(=S)NC1(c1ccccc1)c1ccccc1` [3,5,5-triphenyl-2-sulfanylideneimidazolidin-4-one] registered an IC50 of 29.5 µM.
Turning to `C#CCCCCCCCCCNC(=O)Oc1cccc(-c2cccc(C(N)=O)c2)c1` [3-(3-carbamoylphenyl)phenyl N-(undec-10-yn-1-yl)carbamate], it took 0.01 µM to reach half-maximal inhibition (IC50).
As for `CCCCCCN1C(=O)C(c2ccccc2)(c2ccccc2)NC1=S` [3-hexyl-5,5-diphenyl-2-sulfanylideneimidazolidin-4-one], the figure is 4.47 µM.
The figure for `CCCCCCN1C(=O)NC(c2ccccc2)(c2ccccc2)C1=O` [3-hexyl-5,5-diphenylimidazolidine-2,4-dione] is 9.55 µM; for `CCCCCCCCN1C(=O)C(c2ccccc2)(c2ccccc2)NC1=S` [3-octyl-5,5-diphenyl-2-sulfanylideneimidazolidin-4-one] it is 3.02 µM; for `CCCCCCCCN1C(=O)C(c2ccc(Br)cc2)(c2ccc(Br)cc2)NC1=S` [5,5-bis(4-bromophenyl)-3-octyl-2-sulfanylideneimidazolidin-4-one] it is 589 µM.
As for `O=C(CCCCCCc1ccccc1)c1nc2ncccc2o1` [7-phenyl-1-{pyrido[2,3-d][1,3]oxazol-2-yl}heptan-1-one], the figure is 0.000316 µM.

Usually IC50 stands for the concentration needed to halve the response being measured. A high value points to weaker potency in that assay.
